Key:
Type in all cases: physicochemical
[1] = Light fastness of thermal transfer recorded image (Xe light exposure); settings: Xe light (17000 lux) for 7 days; retention of status A reflection density 1.0; image from thermal transfer ink sheet
Text: (§1) The thermal transfer recording ink sheet produced in Example 201 and the image-receiving material constructed as above were combined in such a manner that the dye-donating layer could face the image-receiving layer, and this was printed using a thermal head applied to the back of the dye-donating material. The output power of the thermal head was 0.25 W/dot, pulse width was from 0.15 to 15 msec, the dot density was 6 dots/mm. In that manner, the magenta dye was imagewise fixed on the image-receiving layer of the image-receiving material, and as a result, a sharp image print with no transfer unevenness was obtained.
(§2) The thermal transfer recording ink sheets produced in Example 202 to 204 and produced in Comparative Example 201 to 203 were used in place of the thermal transfer recording ink sheet produced in Example 201, tested for image recording.
Next, the thermal transfer image-receiving material that had been recorded by the thermal transfer were exposed to a Xe light (17000 lux) for 7 days, and tested for the light stability (light fastness) of the recorded images. After the exposure, the status A reflection density of the part of each sample having an original status A reflection density of 1.0 before the exposure was measured, and the retention (by percentage) to the reflection density of 1.0 after exposure to that before exposure indicates the image stability. With the retention percentage, the samples were ranked in three, A (from 90% to less than 100%), B (from 80% to less than 90%), C (less than 80%).

[2] = Dye solubility in methyl ethyl ketone/toluene; set-up: key: A (easily soluble); B (soluble); C (difficult to dissolve, but soluble); settings: solvent methyl ethyl ketone/toluene (1/1, w/w), ranked in three
Text: The dye solubility of each compound in the solvent of methyl ethyl ketone/toluene (1/1, w/w) was ranked in three, A (easily soluble), B (soluble), C (difficult to dissolve, but soluble).

[3] = Wet heat fastness of thermal transfer recorded image (80° C., 70% RH, dark); settings: 80° C. and 70% RH in a dark place for 7 days; retention of Status A reflection density 1.0; image from thermal transfer ink sheet
Text: as §1, §2
Further, the thermal transfer image-receiving material that had been recorded by the thermal transfer in the same manner as above were stored under the condition of 80° C. and 70% RH in a dark place for 7 days, and checked for the wet heat stability (wet heat fastness) of the image. After exposure to light, the Status A reflection density of the area having an initial Status A reflection density of 1.0 was measured; and the density retentiveness (percentage) relative to the original reflection density 1.0 before exposure to light was computed. Based on the computed data, the samples were evaluated with regard to the stability into three ranks, A (from 90% to less than 100%), B (from 80% to less than 90%), and C (less than 80%).

[4] = Evaluation of maximum absorption wavelength (absorption spectrometry in ethyl acetate solution); settings: concentration 1×10^−6 mol/L, optical path length 10 mm
Experimental: <Evaluation of Maximum Absorption Wavelength>
The thus-obtained arylidene-pyrazolone dyes of Examples 101 to 105 were analyzed absorption spectrometry in an ethyl acetate solution (concentration: 1×10^−6 mol/L, optical path length: 10 mm).

Row | Light Fastness [1] | Solubility [2] | Wet Heat Fastness [3] | Maximum Absorption Wavelength [4] | Compound
1 | A (A (from 90% to less than 100%)) | A | A (A (from 90% to less than 100%)) | 468 nm | CCOC1=NN(S(C)(=O)=O)C(=O)/C1=C\c1ccc(N(CC)CC)cc1 [Compound Y-1]
2 | A (A (from 90% to less than 100%)) | A | A (A (from 90% to less than 100%)) | 462 nm | CCOC1=NN(S(=O)(=O)N(C)C)C(=O)/C1=C\c1ccc(N(CC)CC)cc1 [Compound Y-8]

Second part, the compound before the results:

Row | Compound | Light Fastness [1] | Solubility [2] | Wet Heat Fastness [3] | Maximum Absorption Wavelength [4]
3 | CCOC1=NN(c2ccccc2)C(=O)/C1=C\c1ccc(N(CC)CC)cc1 [Comparative Dye 2] | A (A (from 90% to less than 100%)) | B | C (C (less than 80%)) | –
4 | CCOC1=NN(C)C(=O)/C1=C\c1ccc(N(CC)CC)cc1 [Comparative Dye 3] | B (B (from 80% to less than 90%)) | A | C (C (less than 80%)) | –
5 | C.I.Disperse Yellow 201 [Comparative Dye 1] | A (A (from 90% to less than 100%)) | A | C (C (less than 80%)) | –
